In patent US10173971B2, “Picolinamides with fungicidal activity” (DOW AGROSCIENCES LLC, priority 2014, dated 2019):
Where two headings read alike, the source gives them in different places.

How the values were obtained:
[1] = tested on: Zymoseptoria tritici; test: Fungicidal activity: leaf blotch of wheat (SEPTTR), wheat seedlings, booth sprayer to run-off or track spray; assay type: in vivo; conditions: for pest or weed control at 121.5 g/ha: Low-Volume Cereal Activity at 121.5 g/H; for pest or weed control at 100 ppm: High-Volume Cereal Activity at 100 ppm
[2] = tested on: Puccinia triticina; test: Fungicidal activity: wheat brown rust (PUCCRT), wheat seedlings, booth sprayer to run-off or track spray; assay type: in vivo; conditions: for pest or weed control at 121.5 g/ha: Low-Volume Cereal Activity at 121.5 g/H; for pest or weed control at 100 ppm: High-Volume Cereal Activity at 100 ppm
[3] = 24 h, 1 Day Protectant, read-out: SEPTTR 1DP
[4] = 24 h, 1 Day Protectant, read-out: PUCCRT 1DP
[5] = 72 h, 3 Day Curative, read-out: PUCCRT 3DC
[6] = 72 h, 3 Day Curative, read-out: SEPTTR 3DC
[7] = 3DC (Day Curative), read-out: SEPTTR 3DC
[8] = 3DC (Day Curative), read-out: PUCCRT 3DC

| SMILES | pest or weed control at 121.5 g/ha [1, 3] | pest or weed control at 121.5 g/ha [2, 4] | pest or weed control at 121.5 g/ha [2, 5] | pest or weed control at 121.5 g/ha [1, 6] | pest or weed control at 100 ppm [1, 3] | pest or weed control at 100 ppm [1, 7] | pest or weed control at 100 ppm [2, 4] | pest or weed control at 100 ppm [2, 8] |
| --- | --- | --- | --- | --- | --- | --- | --- | --- |
| COc1ccnc(C(=O)N[C@@H](C)C(=O)O[C@@H](C)[C@H](Cc2ccc(F)cc2)C(C)(C)OCc2ccc(F)cc2)c1OCOC(C)=O [compound 250] | 0 to 80% | 0 to 80% | 0 to 80% | – | – | – | – | – |
| CCCOC(C)(C)[C@@H](Cc1ccc(OC)c(Cc2ccccc2)c1)[C@H](C)OC(=O)[C@H](C)NC(=O)c1nccc(OC)c1OCOC(C)=O [compound 259] | – | 0 to 80% | – | 0 to 80% | – | – | – | – |
| CCCOC(C)(C)[C@@H](Cc1ccc(OC)c(Cc2ccccc2)c1)[C@H](C)OC(=O)[C@H](C)NC(=O)c1nccc(OC)c1O [compound 146] | – | – | – | – | 0 to 80% | 0 to 80% | 0 to 80% | – |
| CC[C@@H](Oc1ccccc1)[C@@H](Cc1ccccc1)[C@H](C)OC(=O)[C@H](C)NC(=O)c1nccc(OC)c1OC(C)=O [compound 194] | 80 to 100% | 80 to 100% | 0 to 80% | 80 to 100% | – | – | – | – |
| COc1ccc(C[C@H](COCC2CC2)[C@H](C)OC(=O)[C@H](C)NC(=O)c2nccc(OC)c2OCOC(C)=O)cc1Cc1ccccc1 [compound 281] | 0 to 80% | 80 to 100% | 0 to 80% | 80 to 100% | – | – | – | – |
| COc1ccnc(C(=O)N[C@@H](C)C(=O)O[C@@H](C)[C@@H](COCc2ccc(F)cc2)Cc2ccc(F)cc2)c1OCOC(C)=O [compound 249] | 80 to 100% | 80 to 100% | 0 to 80% | 0 to 80% | – | – | – | – |
| COc1ccnc(C(=O)N[C@@H](C)C(=O)O[C@@H](C)[C@H](Cc2ccccc2)C(C)(C)OC)c1O [compound 137] | – | – | – | – | – | 0 to 80% | – | 0 to 80% |
| CCOCC(=O)OCOc1c(OC)ccnc1C(=O)N[C@@H](C)C(=O)O[C@@H](C)[C@H](Cc1ccccc1)C(C)(C)OCc1ccccc1 [compound 236] | 80 to 100% | 80 to 100% | 0 to 80% | 0 to 80% | – | – | – | – |
| C=C[C@H](Cc1ccc(C(F)(F)F)cc1)[C@@H](Cc1ccc(F)cc1)[C@H](C)OC(=O)CNC(=O)c1nccc(OC)c1OC(C)=O [compound 180] | 0 to 80% | 0 to 80% | – | – | – | – | – | – |
| COc1ccnc(C(=O)N[C@@H](C)C(=O)O[C@@H](C)[C@H](Cc2ccc3ccccc3c2)c2ccccc2)c1OCOC(C)=O [compound 225] | 0 to 80% | 0 to 80% | 0 to 80% | 0 to 80% | – | – | – | – |
| COc1ccnc(C(=O)N[C@@H](C)C(=O)O[C@@H](C)[C@H](CCC(C)C)c2ccccc2)c1OC(=O)C(C)C [compound 211] | 80 to 100% | 0 to 80% | – | 80 to 100% | – | – | – | – |
| CCCOC[C@@H](Cc1ccccc1)[C@H](C)OC(=O)[C@@H](C)NC(=O)c1nccc(OC)c1O [compound 97] | – | – | – | – | 0 to 80% | 0 to 80% | 0 to 80% | 0 to 80% |
| CCCO[C@@H](CC)[C@@H](Cc1ccccc1)[C@H](C)OC(=O)[C@H](CC)NC(=O)c1nccc(OC)c1O [compound 95] | – | – | – | – | 0 to 80% | 0 to 80% | 80 to 100% | 80 to 100% |
| COc1ccnc(C(=O)N[C@H](C(=O)OC(C)C(Cc2ccccc2)Cc2ccccc2)C(C)C)c1OCOC(C)=O (stereo partly shown) [compound 266] | 0 to 80% | 80 to 100% | 0 to 80% | – | – | – | – | – |
| CCCO[C@H](CC)[C@@H](Cc1ccccc1)[C@H](C)OC(=O)[C@@H](C)NC(=O)c1nccc(OC)c1O [compound 96] | – | – | – | – | 80 to 100% | 0 to 80% | 80 to 100% | 80 to 100% |
| COc1ccnc(C(=O)N[C@@H](C)C(=O)O[C@@H](C)[C@H](Cc2ccc(C)cc2)c2ccccc2)c1OCOC(C)=O [compound 221] | 80 to 100% | 80 to 100% | 0 to 80% | 80 to 100% | – | – | – | – |
| CC[C@H](Cc1ccc(C(F)(F)F)cc1)[C@@H](Cc1ccc(F)cc1)[C@H](C)OC(=O)[C@H](COC)NC(=O)c1nccc(OC)c1OC(C)=O [compound 181] | 0 to 80% | 80 to 100% | 0 to 80% | 0 to 80% | – | – | – | – |
| COc1ccnc(C(=O)N[C@@H](C)C(=O)O[C@@H](C)[C@H](Cc2ccc(C)cc2)c2ccccc2)c1O [compound 128] | – | – | – | – | 80 to 100% | 0 to 80% | 80 to 100% | – |

| SMILES | pest or weed control at 121.5 g/ha [1, 3] | pest or weed control at 121.5 g/ha [2, 4] | pest or weed control at 121.5 g/ha [2, 5] | pest or weed control at 121.5 g/ha [1, 6] | pest or weed control at 100 ppm [1, 3] | pest or weed control at 100 ppm [1, 7] | pest or weed control at 100 ppm [2, 4] | pest or weed control at 100 ppm [2, 8] |
| --- | --- | --- | --- | --- | --- | --- | --- | --- |
| COC[C@@H](Cc1ccc(F)cc1)[C@H](C)OC(=O)[C@H](C)NC(=O)c1nccc(OC)c1OCOC(C)=O [compound 243] | 0 to 80% | 80 to 100% | 80 to 100% | 0 to 80% | – | – | – | – |
| CC[C@H](NC(=O)c1nccc(OC)c1O)C(=O)OC(C)C(Cc1ccccc1)Cc1ccccc1 (stereo partly shown) [compound 149] | – | – | – | – | 80 to 100% | – | 80 to 100% | – |
| COc1ccnc(C(=O)N[C@@H](C)C(=O)O[C@@H](C)[C@H](CCC(C)C)c2ccccc2)c1OC(C)=O [compound 210] | 80 to 100% | 80 to 100% | 0 to 80% | 80 to 100% | – | – | – | – |
| C=C[C@H](Cc1ccc(C(F)(F)F)cc1)[C@@H](Cc1ccc(F)cc1)[C@H](C)OC(=O)[C@H](C)NC(=O)c1nccc(OC)c1OC(C)=O [compound 179] | 0 to 80% | 80 to 100% | – | 80 to 100% | – | – | – | – |
| C=C[C@H](Cc1ccc(C(F)(F)F)cc1)[C@@H](Cc1ccc(F)cc1)[C@H](C)OC(=O)[C@H](C)NC(=O)c1nccc(OC)c1O [compound 108] | – | – | – | – | – | 0 to 80% | 80 to 100% | – |
| CCCOC[C@@H](Cc1ccc(OC)c(Cc2ccccc2)c1)[C@H](C)OC(=O)[C@H](C)NC(=O)c1nccc(OC)c1OCOC(C)=O [compound 258] | 0 to 80% | 0 to 80% | 0 to 80% | 0 to 80% | – | – | – | – |
| COc1ccnc(C(=O)N[C@@H](C)C(=O)O[C@@H](C)[C@@H](COCCC(C)C)Cc2ccccc2)c1OCOC(C)=O [compound 252] | 80 to 100% | 80 to 100% | 80 to 100% | 80 to 100% | – | – | – | – |
| CCCC[C@@H]([C@H](C)OC(=O)[C@H](C)NC(=O)c1nccc(OC)c1O)[C@@H](CC)Oc1ccccc1 [compound 116] | – | – | – | – | 0 to 80% | 0 to 80% | 0 to 80% | 80 to 100% |
| COc1ccnc(C(=O)N[C@@H](C)C(=O)O[C@@H](C)[C@@H](COc2ccccc2)Cc2ccccc2)c1O [compound 125] | – | – | – | – | 0 to 80% | 0 to 80% | 0 to 80% | 0 to 80% |
| CCCOC[C@@H](Cc1ccccc1)[C@H](C)OC(=O)C(C)(C)NC(=O)c1nccc(OC)c1O [compound 99] | – | – | – | – | – | 0 to 80% | 0 to 80% | 0 to 80% |
| CCOC[C@H](Oc1ccc(C)cc1)[C@@H](Cc1ccc(F)cc1)[C@H](C)OC(=O)[C@H](C)NC(=O)c1nccc(OC)c1OCOC(C)=O [compound 177] | 80 to 100% | 80 to 100% | 0 to 80% | 0 to 80% | – | – | – | – |
| CC[C@H](Cc1ccccc1)[C@@H](Cc1ccc(OC(F)(F)F)cc1)[C@H](C)OC(=O)[C@H](C)NC(=O)c1nccc(OC)c1O [compound 112] | – | – | – | – | 0 to 80% | – | 0 to 80% | – |
| COc1ccnc(C(=O)N[C@@H](C)C(=O)O[C@@H](C)[C@@H](COCc2ccccc2)Cc2ccccc2)c1OC(C)=O [compound 227] | 80 to 100% | 0 to 80% | 0 to 80% | 0 to 80% | – | – | – | – |
| COC[C@@H](Cc1ccc(F)cc1)[C@H](C)OC(=O)[C@H](C)NC(=O)c1nccc(OC)c1O [compound 135] | – | – | – | – | 0 to 80% | 0 to 80% | 80 to 100% | 0 to 80% |
| CCOCC(=O)OCOc1c(OC)ccnc1C(=O)N[C@@H](C)C(=O)O[C@@H](C)[C@@H](COC)Cc1ccc(F)cc1 [compound 237] | 0 to 80% | 80 to 100% | 80 to 100% | 0 to 80% | – | – | – | – |
| CC[C@@H](c1ccccc1)[C@H](C)OC(=O)[C@H](C)NC(=O)c1nccc(OC)c1OC(C)=O [compound 283] | 0 to 80% | 80 to 100% | 80 to 100% | 80 to 100% | – | – | – | – |
| CCOC[C@H](Oc1ccc(C)cc1)[C@@H](Cc1ccc(F)cc1)[C@H](C)OC(=O)[C@H](C)NC(=O)c1nccc(OC)c1O [compound 105] | – | – | – | – | 0 to 80% | 0 to 80% | 80 to 100% | 0 to 80% |
